From patent US9421237B2, “Tripeptide boronic acid or boronic ester, preparative method and use thereof” (PEKING UNIVERSITY, priority 2009, dated 2016) come the findings set out here.

The target in data set [1] is T1, 20S proteasome extracted from rat liver, chymotryptic-like (CT-L) activity (Rattus norvegicus, UniProt P18421+P28075).
T1 construct: 20S proteasome extracted from rat liver; from tissue; host or cells: rat liver
As to the kind of experiment: Proteasome inhibition, chymotryptic-like (CT-L) activity, fluorescent peptide Suc-leu-leu-Val-Tyr-AMC. The class given is biochemical. Conditions: rat liver 20S proteasome, 37° C., 1 h. The gist of the method:
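Rat liver 20S proteasome (1 μg) incubated 1 h at 37° C with compounds and 50 μM Suc-Leu-Leu-Val-Tyr-AMC in 20 mM Tris-HCl.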

The target of data set [2] is T2, 20S proteasome extracted from rat liver, trypsin-like (TL) activity (Rattus norvegicus, UniProt P40112+Q9JHW0).
T2 construct: 20S proteasome extracted from rat liver; from tissue; host or cells: rat liver
Description: Proteasome inhibition, trypsin-like (TL) activity, fluorescent peptide Z-Ala-Arg-Arg-AMC. To be noted: rat liver 20S proteasome, 37° C., 1 h; read-out: T-L (IC50). The class given is biochemical. The gist of the method: (§1)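 Rat liver 20S proteasome (1 μg) incubated 1 h at 37 °C with compounds, 50 μM fluorogenic peptide and 20 mM Tris-HCl. AMC release read at 380/440 nm and βNA release at 335/410 nm. Inhibition rate calculated against a 0.1% DMSO solvent control.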

Data set [3] concerns the target T3, 20S proteasome extracted from rat liver, peptidyl-glutamyl-peptide-hydrolyzing (PGPH) enzyme activity (Rattus norvegicus, UniProt P28073+Q9JHW0).
T3 construct: 20S proteasome extracted from rat liver; from tissue; host or cells: rat liver
As to the kind of experiment: Proteasome inhibition, PGPH activity, fluorescent peptide Z-leu-leu-Glu-βNA. It is filed as biochemical. Conditions: rat liver 20S proteasome, 37° C., 1 h. The procedure, abridged: as §1

The test system of data set [4] is HL-60 human leukemia cell. As to the kind of experiment: Preliminary anti-tumor screening in vitro, MTT method. The class given is cell-based. Set-up: key to Test results: +++: inhibition rates at three doses are greater than 50%; ++: inhibition rates at two doses are greater than 50%; +: inhibition rate at one dose is greater than 50%. To be noted: HL-60, MTT; for Test results: number of doses with inhibition > 50%; for inhibition at 0.05 µM / inhibition at 0.5 µM / inhibition at 5 µM: Homo sapiens, read-out: Inhibition rate %. The procedure, abridged:
(§2)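 In vitro cytotoxicity by routine methods: MTT read-out for HL-60 cells, SRB read-out for BGC-823, Bel-7402 and KB cells.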
(Formazan colour is commonly taken as a measure of viable cells.)

Data set [5] concerns BGC-823 human gastric cancer cell. Description: Preliminary anti-tumor screening in vitro, SRB method. Conditions: BGC-823, SRB; for Test results: number of doses with inhibition > 50%; for inhibition at 0.05 µM / inhibition at 0.5 µM / inhibition at 5 µM: Homo sapiens, read-out: Inhibition rate %. It is filed as cell-based. Also noted: key to Test results: +++: inhibition rates at three doses are greater than 50%; ++: inhibition rates at two doses are greater than 50%; +: inhibition rate at one dose is greater than 50%. The procedure, abridged:
as §2
(In general: The SRB assay estimates cell density from bound dye.)

Data set [6] relates to Bel-7402 human hepatocarcinoma cell. The description is as above. It is filed as cell-based. Also noted: key to Test results: +++: inhibition rates at three doses are greater than 50%; ++: inhibition rates at two doses are greater than 50%; +: inhibition rate at one dose is greater than 50%. Conditions: Bel-7402, SRB; for Test results: number of doses with inhibition > 50%; for inhibition at 0.05 µM / inhibition at 0.5 µM / inhibition at 5 µM: Homo sapiens, read-out: Inhibition rate %. The gist of the method: as §2

In data set [7] the test system is KB human nasopharyngeal carcinoma cell. Described as above. It is filed as cell-based. Also noted: key to Test results: +++: inhibition rates at three doses are greater than 50%; ++: inhibition rates at two doses are greater than 50%; +: inhibition rate at one dose is greater than 50%. Conditions: for inhibition at 0.05 µM / inhibition at 0.5 µM / inhibition at 5 µM: Homo sapiens, read-out: Inhibition rate %; for Test results: number of doses with inhibition > 50%. The gist of the method:
as §2

Data set [8] concerns BGC-823 (human gastric carcinoma cell strain). As to the kind of experiment: In vitro anti-tumor activity (IC50), standard MTT method. It is filed as cell-based. To be noted: 72 h, average of three determinations. On the procedure:
(§3) HL-60, BXPC-3 and U266 were obtained from the American Type Culture Collection (Manassas, Va.), and BGC-823 (human gastric carcinoma cell strain) was obtained from China Pharmaceutical University.
(§4) Test methods: HL-60 cells were cultured in IMDM medium containing 20% fetal bovine serum at 37° C. in 5% CO2; BGC-823 cells and BXPC-3 cells were cultured in RPMI1640 medium containing 10% fetal bovine serum at 37° C. in 5% CO2; U266 cells were cultured in RPMI1640 medium containing 15% fetal bovine serum at 37° C. in 5% CO2.
(§5) The cell growth was measured by the standard MTT method. A dispersions (150 μL, containing 3000 cells) medium was added into each well of a 96-well plate and allowed to grow, after 24 h, ten kinds of medium (50 μL) containing different concentrations of drugs were added into the corresponding wells, and continued to incubate for 72 h. Then a solution containing 5 mg/ml MTT (20 μL) was added into each well and incubated for another 4 h at 37° C. The plate was then centrifugated at 1000 rpm at 4° C. for 5 min, and the medium in upper layer was carefully discarded. The precipitates were dissolved in 100 μL of DMSO, and absorbance was read with an Infinite M200 (Tecan, Austria) microplate reader at 540 nm.
(§6) The result was expressed as IC50 value, which is the average value of three independent determinations.

Data set [9] deals with BXPC-3 (human pancreatic cancer cell strain). The description is as above. It is filed as cell-based. To be noted: 72 h, average of three determinations. The method, then: as §3, §4, §5, §6
The test system of data set [10] is HL-60 (promyelocytic leukemia cell strain). The description is as above. The class given is cell-based. Conditions: Homo sapiens, 72 h, average of three determinations. On the procedure: as §3, §4, §5, §6
The test system of data set [11] is U266 (multiple myeloma cell strain). Described as above. It is filed as cell-based. To be noted: Homo sapiens, U-266, 72 h, average of three determinations. On the procedure: as §3, §4, §5, §6

In turn, `CC(C)C[C@H](NC(=O)[C@H](Cc1ccccc1)NC(=O)[C@H](Cc1ccc2ccccc2c1)NC(=O)c1cnccn1)B(O)O` [Compound 6b, N-pyrazineformyl-L-naphthylalanyl-L-phenylalanyl-L-leucine Boronic Acid] registered a melting point of 134 to 135 °C. The compound also registered an IC50 in [1] of 0.417 ± 0.07 nM. Also, in data set [2], the IC50 is > 20 nM. In data set [3], this compound came in with an IC50 of 4.43 ± 1.41 nM. Moreover, in [4], the Test results is “++”, the inhibition at 0.05 µM turned out to be 3.58%, the inhibition at 0.5 µM was found to be 87.3% and the inhibition at 5 µM is 88.9%. Besides, in [5], the Test results was “+++”, the inhibition at 0.05 µM came out at 56.4%, the inhibition at 0.5 µM worked out at 93.7% and the inhibition at 5 µM is 96.7%. Also, in data set [6], the Test results is “+”, the inhibition at 0.05 µM turned out to be 22.9%, the inhibition at 0.5 µM is 56.1% and the inhibition at 5 µM stood at 91.6%. In data set [7], the inhibition at 0.05 µM worked out at 23.3%, the inhibition at 0.5 µM is 91.5%, the inhibition at 5 µM was 96.6% and the Test results is listed as “++”. This compound had an IC50 in [8] of 2810 nM. The IC50 in data set [9] was determined as 31.8 nM. In data set [10], this compound registered an IC50 of 10 nM. The same compound displayed a half-inhibitory concentration (IC50) in data set [11] of 53 nM.

Compound `CC(C)C[C@H](NC(=O)[C@H](Cc1ccc(O)cc1)NC(=O)[C@H](Cc1ccccc1)NC(=O)c1cnccn1)B(O)O` [Compound 6c, N-pyrazineformyl-L-phenylalanyl-L-tyrosyl-L-leucine Boronic Acid] came in with a melting point of 298 to 300 °C. The compound further displayed an IC50 in [1] of 0.395 ± 0.035 nM. Also, in [2], the IC50 was > 20 nM. For the same compound, the midpoint of inhibition in [3], the IC50, lay at 4.01 ± 1.47 nM. In data set [4], the Test results is “+”, the inhibition at 0.05 µM was -16.1%, the inhibition at 0.5 µM was -8.48% and the inhibition at 5 µM came to 65%. Besides, in data set [5], the Test results is given as “+”, the inhibition at 0.05 µM worked out at 2.64%, the inhibition at 0.5 µM was determined as 25.1% and the inhibition at 5 µM is 97.7%. Also, in data set [6], the Test results is on record as “+”, the inhibition at 0.05 µM was -2.64%, the inhibition at 0.5 µM is -4.84% and the inhibition at 5 µM was determined as 71.2%. In data set [7], the inhibition at 0.05 µM was -13.6%, the inhibition at 0.5 µM was -5.16%, the inhibition at 5 µM is 95.4% and the Test results was “+”. Further, the IC50 in data set [8] came to 5140 nM. This compound also displayed an IC50 in [9] of 445 nM. The compound further gave an IC50 in data set [10] of 552 nM. In data set [11], this compound came in with an IC50 of 250 nM.

For orientation: IC50 means the midpoint of a concentration-inhibition curve. The term inhibition denotes the relative decrease from the control value, in per cent. A word on the melting point: it is the temperature, or range, at which the solid turns liquid.
